Measured values: article PMC13252604, “First Generation Proteolysis Targeting Chimeras (PROTACs) for the Treatment of Progeria” (Advanced Science, 2026)

What was measured:
[1] = system: overall protein abundance; experiment: Global proteomic analysis; assay type: cell-based; details: 5 µM compound vs vehicle, three independent samples each
Description: (A) Input IP .LM123L T-!=> V,!=>
MW Veh Cpd 2 Cpd 2 Veh !!!!!"#$$#B -45665 T4--8 -4;?,;
Progerin !!!!!E#)*+,- ,V4:-Ise::::: :etpoooomX,?4?V:enst9mmqo,848; !?#$B?CDEFCBG+I-+G.BLG+ […]
!!!!!*+,- 84;66L<-,VI9e::::::esnnsmqmXV4-;VL<-,?:estm9XpoX?4T-?L<-,8 FFFFF0BNNB$ :em9Xn […]
IgG heavy chain Iqep:m:p ne:qmppo:m :esmpqtmpn FFFFFSB#T89:I9em:m […]
50- Iqe9mt:: :eoX9ppnnm :eoqpq9s9p X9YF8=F>.-B2?E+FE??+E?@BBCA
FFFFF0BNNB$ rrrFNBF:eqoqs
Cpd 2 Veh FFFFFSB#T89:rrr […]
Vehicle .LM123L T-!=>(%C" V,!=> […]
50- !!!!!C#' -4TT8VLamin C -4T:T; (%$$-4-:?5T '()*+
!!!!!E#)*+,- ,V4:-β-Actin ,?4?V ,848; D(%
37- !!!!!*+,- 84;66L<-,V V4-;VL<-,? ?4T-?L<-,8 ,-)*+ […]
Abundance Ratio (log2): Ve h / Cpd 2
Supporting Figure S2. Ternary complex formation, progerin engagement and global selectivity of compound 2. (A) Progeroid […]/G609G fibroblasts treated with vehicle (0.1% DMSO) or compound 2 (5 µM) were subjected to immunoprecipitation with an anti-CRBN antibody and then immunoblotted with an anti-progerin antibody. Bar graph represents mean±sem of 2 independent experiments. (B) Representative progerin immunoblotting of the soluble fraction of LmnaG609G/G609G cell homogenates treated with […]
indicated temperature. (C) Thermal denaturation curves of progerin in the presence of vehicle (black) or compound 2 at 10 µM (red, DTm=0.7±0.1 °C) or 25 µM (blue, […]
of compound 2 (IC50=7±1 µM). […]

Lmna^G609G/G609G mice = experiment: In vivo treatment of progeroid Lmna^G609G/G609G mice; set-up: species or system mouse
Experimental: Weight was monitored during this time and at the end of the period mice were sacrificed and tissue was harvested to determine if PROTAC administration induced a decrease in the levels of progerin in vivo.
UHPLC with an oven temperature of 31.5 °C. The mass spectrometer ion optics were set in the multiple reaction monitoring mode and the transition selected for quantification […]
For in vivo treatment, compound 2 was administrated at a concentration of 25 mg/kg diluted in sterile corn oil (Sigma-Aldrich) intraperitoneally three times per week starting at the age of 6 weeks. The same quantity of corn oil was injected to control […]
LmnaG609G/G609G and Lmna+/+ mice. […]
stress in mice. The weight of each mouse was registered 2 to 3 times per week during the duration of the treatment.
After 7 weeks of treatment, mice were euthanized by CO2 inhalation. Immediately after sacrifice, tissues were harvested, frozen in dry ice, and kept at -80 °C until use. For immunoblot analysis, a portion of the corresponding tissue was homogenized, and the protein concentration was determined. Samples containing equivalent amounts of total protein were then subjected to polyacrylamide gel electrophoresis and analyzed as […]

Question: How did the “alterations in overall protein abundance (global proteomics)” value [1] turn out when CC1(C)Oc2cc3oc(=O)ccc3cc2C[C@@H]1OC(=O)CCCCCNc1cccc2c1C(=O)N(C1CCC(=O)NC1=O)C2=O (some centres unmarked) [compound 2] was run?
Answer: Its value is “did not identify significant alterations in overall protein abundance”.

Question: And the “apparent damage or stress in mice” value (Lmna^G609G/G609G mice; 25 mg/kg i.p. in corn oil three times per week)?
Answer: Its value is “did not produce any apparent damage or stress in mice”.

Question: And the body weight (Lmna^G609G/G609G mice; Lmna^G609G/G609G mice, 25 mg/kg i.p. three times per week, seven weeks)?
Answer: Its body weight is “trend toward improved body weight”.

Question: What about the “H3K9Me3 levels in vivo” value (Lmna^G609G/G609G mice; liver, Lmna^G609G/G609G mice, 25 mg/kg i.p. three times per week, 7 weeks) of the same compound?
Answer: The value was “increased levels of H3K9Me3”.

Question: And the “progerin levels in vivo” value (Lmna^G609G/G609G mice; lung, Lmna^G609G/G609G mice, 25 mg/kg i.p. three times per week, 7 weeks)?
Answer: Its value is “reduced levels of progerin”.
